In ChEMBL document CHEMBL5241134, “Discovery of orally bioavailable inhibitors of MALT1 with in vivo activity for psoriasis” (Bioorg Med Chem Lett, 2023):

How the values were obtained:
[1] = target: T1, Mucosa-associated lymphoid tissue lymphoma translocation protein 1 (Homo sapiens, UniProt Q9UDY8); experiment: Inhibition of MALT1 (unknown origin)
T1 sequence (Q9UDY8 whole entry): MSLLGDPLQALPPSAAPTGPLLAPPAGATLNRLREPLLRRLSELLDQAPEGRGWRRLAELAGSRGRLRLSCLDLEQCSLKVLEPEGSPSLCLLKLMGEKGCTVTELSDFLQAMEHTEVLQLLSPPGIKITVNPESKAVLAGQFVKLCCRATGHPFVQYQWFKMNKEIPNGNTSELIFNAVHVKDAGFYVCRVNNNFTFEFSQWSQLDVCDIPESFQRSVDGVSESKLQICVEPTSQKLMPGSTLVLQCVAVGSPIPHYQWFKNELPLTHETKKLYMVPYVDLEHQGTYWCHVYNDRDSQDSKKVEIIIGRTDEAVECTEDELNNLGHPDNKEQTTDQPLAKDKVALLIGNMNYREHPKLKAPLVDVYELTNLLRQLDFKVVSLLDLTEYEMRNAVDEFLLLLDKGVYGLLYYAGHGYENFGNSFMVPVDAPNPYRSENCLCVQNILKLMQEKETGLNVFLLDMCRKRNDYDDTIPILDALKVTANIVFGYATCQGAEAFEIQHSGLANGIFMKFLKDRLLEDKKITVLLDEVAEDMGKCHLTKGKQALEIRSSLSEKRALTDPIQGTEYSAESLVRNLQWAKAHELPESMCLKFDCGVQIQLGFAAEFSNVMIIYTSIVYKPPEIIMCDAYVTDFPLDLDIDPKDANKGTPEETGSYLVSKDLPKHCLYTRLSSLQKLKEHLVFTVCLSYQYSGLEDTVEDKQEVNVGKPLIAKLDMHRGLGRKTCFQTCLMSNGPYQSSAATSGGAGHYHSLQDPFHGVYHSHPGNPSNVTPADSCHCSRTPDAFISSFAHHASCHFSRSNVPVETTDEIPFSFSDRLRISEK

[2] = Inhibition of IL-2 production in PMA/ionomycin stimulated human Jurkat T cells; assay type: functional, cell-based
[3] = Apparent permeability of the compound in human Caco-2 cells; assay type: ADME, cell-based
[4] = Drug concentration in BALB/cAnNCrlCr mouse at 1 mg/kg, iv administered as single dose; assay type: ADME, organism-based; details: in vivo
[5] = AUC (0 to infinity) in BALB/cAnNCrlCr mouse at 1 mg/kg, iv administered as single dose; assay type: ADME, organism-based; design: dose 1 mg/kg, route iv; details: in vivo
[6] = Half-life in BALB/cAnNCrlCr mouse at 1 mg/kg, iv administered as single dose; assay type: ADME, organism-based; details: in vivo
[7] = Total clearance in BALB/cAnNCrlCr mouse at 1 mg/kg, iv administered as single dose; assay type: ADME, organism-based; details: in vivo
[8] = Cmax in BALB/cAnNCrlCr mouse at 2 mg/kg, po administered as single dose; assay type: ADME, organism-based; design: dose 2 mg/kg, route po; details: in vivo
[9] = AUC (0 to infinity) in BALB/cAnNCrlCr mouse at 2 mg/kg, po administered as single dose; assay type: ADME, organism-based; design: dose 2 mg/kg, route po; details: in vivo
[10] = Half-life in BALB/cAnNCrlCr mouse at 2 mg/kg, po administered as single dose; assay type: ADME, organism-based; details: in vivo
[11] = Tmax in BALB/cAnNCrlCr mouse at 2 mg/kg, po administered as single dose; assay type: ADME, organism-based; details: in vivo
[12] = Oral bioavailability in BALB/cAnNCrlCr mouse at 2 mg/kg administered as single dose; assay type: ADME, organism-based; details: in vivo

SMILES	IC50 [1]	also measured
NC(=O)/N=C(\N)NCc1cc(-c2ccc(Cl)cc2)n(-c2ccc(Cl)cc2)n1	1110 nM	
CN(C)[C@@H](CO)C(=O)NCc1cc(-c2ccc(Cl)cc2)n(-c2ccc(Cl)cc2)n1	4020 nM	
O=C(CCc1ccccc1)NCc1cc(-c2ccc(Cl)cc2)n(-c2ccc(Cl)cc2)n1	262 nM	
O=C(NCc1cc(-c2ccc(Cl)cc2)n(-c2ccc(Cl)cc2)n1)c1ccccc1	> 25000 nM	
CN(C)CC(=O)NCc1cc(-c2ccc(Cl)cc2)n(-c2ccc(Cl)cc2)n1	3880 nM	
CC(=O)N[C@H](C(=O)NCc1cc(-c2ccc(Cl)cc2)n(-c2ccc(Cl)cc2)n1)C(C)C	2060 nM	
CS(=O)(=O)/N=C(\N)NCc1cc(-c2ccc(Cl)cc2)n(-c2ccc(Cl)cc2)n1	401 nM	
CCN/C(=N\S(C)(=O)=O)NCc1cc(-c2ccc(Cl)cc2)n(-c2ccc(Cl)cc2)n1	848 nM	
Cn1ccc(S(=O)(=O)/N=C(\N)NCc2cc(-c3ccc(Cl)cc3)n(-c3ccc(Cl)cc3)n2)n1	510 nM	
CS(=O)(=O)NCc1cc(-c2ccc(Cl)cc2)n(-c2ccc(Cl)cc2)n1	2190 nM	
N#C/N=C(\N)NCc1cc(-c2ccc(Cl)cc2)n(-c2ccc(Cl)cc2)n1	1590 nM	
CC(=O)/N=C(\N)NCc1cc(-c2ccc(Cl)cc2)n(-c2ccc(Cl)cc2)n1	1540 nM	
CC(C)[C@H](N)C(=O)NCc1cc(-c2ccc(Cl)cc2)n(-c2ccc(Cl)cc2)n1	1850 nM	
CN(C)[C@@H](CO)CNC(=O)c1cc(-c2ccc(Cl)cc2)n(-c2ccc(Cl)cc2)n1	690 nM	
N/C(=N\S(=O)(=O)Cc1ccccc1)NCc1cc(-c2ccc(Cl)cc2)n(-c2ccc(Cl)cc2)n1	774 nM	
O=C(NCCc1ccccc1)c1cc(-c2ccc(Cl)cc2)n(-c2ccc(Cl)cc2)n1	> 25000 nM	
CC(=O)NCc1cc(-c2ccc(Cl)cc2)n(-c2ccc(Cl)cc2)n1	1770 nM	
N/C(=N\S(=O)(=O)c1ccncc1)NCc1cc(-c2ccc(Cl)cc2)n(-c2ccc(Cl)cc2)n1	562 nM	
NC(=O)NCc1cc(-c2ccc(Cl)cc2)n(-c2ccc(Cl)cc2)n1	1430 nM	
N/C(=N\S(=O)(=O)C1CC1)NCc1cc(-c2ccc(Cl)cc2)n(-c2ccc(Cl)cc2)n1	258 nM	
N/C(=N\S(=O)(=O)C1CCCCC1)NCc1cc(-c2ccc(Cl)cc2)n(-c2ccc(Cl)cc2)n1	762 nM	
N[C@@H](Cc1ccccc1)C(=O)NCc1cc(-c2ccc(Cl)cc2)n(-c2ccc(Cl)cc2)n1	280 nM	
N[C@@H](C(=O)NCc1cc(-c2ccc(Cl)cc2)n(-c2ccc(Cl)cc2)n1)c1ccccc1	368 nM	

Stronger by IC50 [1], values ahead:

IC50 [1]	SMILES	also measured
56 nM	N/C(=N\S(=O)(=O)c1cccc(F)c1)NCc1cc(-c2ccc(Cl)cc2)n(-c2ccc(Cl)cc2)n1	IC50 [2]: 1350 nM
34 nM	CS(=O)(=O)/N=C(\NCc1ccccn1)NCc1cc(-c2ccc(Cl)cc2)n(-c2ccc(Cl)cc2)n1	
53 nM	N[C@H](C(=O)NCc1cc(-c2ccc(Cl)cc2)n(-c2ccc(Cl)cc2)n1)c1ccccc1	IC50 [2]: 2660 nM
93 nM	N/C(=N\S(=O)(=O)c1ccccc1)NCc1cc(-c2ccc(Cl)cc2)n(-c2ccc(Cl)cc2)n1	IC50 [2]: 1400 nM; Papp [3]: 3 ×10⁻⁶ cm/s; Drug uptake [4]: 1920 ng/mL; AUC(0-inf) [5]: 5570 ng·h/mL; half-life [6]: 3.37 h; clearance [7]: 3 mL/min/kg; Cmax [8]: 560 ng/mL; AUC(0-inf) [9]: 4450 ng·h/mL; half-life [10]: 4.82 h; Tmax [11]: 2 h; bioavailability [12]: 39.9%
53 nM	CN(C)[C@H](C(=O)NCc1cc(-c2ccc(Cl)cc2)n(-c2ccc(Cl)cc2)n1)c1ccccc1	IC50 [2]: 1720 nM
227 nM	NC(C(=O)NCc1cc(-c2ccc(Cl)cc2)n(-c2ccc(Cl)cc2)n1)c1ccccn1 (configuration not stated)	
249 nM	N/C(=N\S(=O)(=O)c1cccs1)NCc1cc(-c2ccc(Cl)cc2)n(-c2ccc(Cl)cc2)n1	IC50 [2]: 1290 nM
159 nM	O=C(NCc1cc(-c2ccc(Cl)cc2)n(-c2ccc(Cl)cc2)n1)C(O)c1ccccc1 (configuration not stated)	
20 nM	CS(=O)(=O)/N=C(\NCc1cccc(Cl)c1)NCc1cc(-c2ccc(Cl)cc2)n(-c2ccc(Cl)cc2)n1	
60 nM	COc1cccc(S(=O)(=O)/N=C(\N)NCc2cc(-c3ccc(Cl)cc3)n(-c3ccc(Cl)cc3)n2)c1	IC50 [2]: 2060 nM
188 nM	O=C(Cc1ccccc1)NCc1cc(-c2ccc(Cl)cc2)n(-c2ccc(Cl)cc2)n1	
60 nM	CS(=O)(=O)N[C@H](C(=O)NCc1cc(-c2ccc(Cl)cc2)n(-c2ccc(Cl)cc2)n1)c1ccccc1	IC50 [2]: > 10000 nM
26 nM	CS(=O)(=O)/N=C(/NCc1cc(-c2ccc(Cl)cc2)n(-c2ccc(Cl)cc2)n1)NCc1cccs1	
45 nM	CS(=O)(=O)/N=C(/NCc1cc(-c2ccc(Cl)cc2)n(-c2ccc(Cl)cc2)n1)N[C@H](CO)c1ccccc1	
53 nM	CS(=O)(=O)/N=C(/NCc1cc(-c2ccc(Cl)cc2)n(-c2ccc(Cl)cc2)n1)NCC1CC1	IC50 [2]: 1640 nM
31 nM	CS(=O)(=O)/N=C(\NCc1ccccc1)NCc1cc(-c2ccc(Cl)cc2)n(-c2ccc(Cl)cc2)n1	IC50 [2]: 1100 nM
42 nM	CC(=O)N[C@H](C(=O)NCc1cc(-c2ccc(Cl)cc2)n(-c2ccc(Cl)cc2)n1)c1ccccc1	IC50 [2]: 5020 nM
56 nM	CC(=O)NC(C(=O)NCc1cc(-c2ccc(Cl)cc2)n(-c2ccc(Cl)cc2)n1)c1ccccn1 (configuration not stated)	IC50 [2]: 4170 nM
